The subject of the assay is SARS-CoV-2. Briefly: SARS-CoV-2 infection in Golden Syrian hamsters, viral loads in swabs and organs. It counts as in vivo. Here is the method: The therapeutic efficacy of taxifolin against SARS-CoV-2 infection was examined in Golden Syrian hamsters, a small animal model that most closely recapitulates clinical and pathological features of COVID-19 in humans. See, e.g., Imai, M, et al., Proc. Nat. Acad. Sci. 117(28):16587-16595 (2020); Reagan-Shaw, S., et al., FASEB J. 22:659-661 (2007). […] Animals in the taxifolin group (n=15) received prophylactic treatment of taxifolin (66.7 mg/kg) through oral gavage (OG) before the viral infection.
After SARS-CoV-2 inoculation, animals in the taxifolin group were orally given taxifolin (66.7 mg/kg) at days 1, 3, and 5. Animals in the control group (n=10) received an equal amount of PBS through oral gavage. At day 7, certain animals in the taxifolin (n=6) group and control group (n=5) were sacrificed, and the viral loads in major organs were tested.

The record followed here is US20230119141A1, “USES OF TAXIFOLIN FOR R[…]” (PHYTO TECH CORP., priority 2021, published 2023).

In the case of `O=C1c2c(O)cc(O)cc2OC(c2ccc(O)c(O)c2)C1O` (stereo not shown) [taxifolin, 2-(3,4-dihydroxyphenyl)-3,5,7-trihydroxychroman-4-one], the “viral load in nasal swabs” value (day 5 after infection, taxifolin 66.7 mg/kg oral gavage prophylactic and at days 1, 3, 5, n=8, control ~3×10^6) was ~7×10^4 RNA copies/100 μL. Further, the “viral loads in oral swabs vs control” value (day 7, taxifolin 66.7 mg/kg oral gavage) is “decreased the viral loads in oral swabs”. Also, the “viral loads in the trachea vs control” value (day 7, taxifolin 66.7 mg/kg oral gavage, n=4 per group) was “clearly reduced the viral loads in the trachea”. Further, the “viral loads in nasal swabs vs control” value (days 3 and 5 after viral infection, taxifolin 66.7 mg/kg oral gavage) was “significantly lowered the viral loads in nasal swabs”.
